Entries after “also recorded” stand apart in the source; their conditions may differ.
Tests used:
Cyclin C/CDK8 [1] = biological target: T1, Cyclin C/CDK8 (Homo sapiens, UniProt P49336); assay: Kinase activity of recombinant Cyclin C/CDK8; assay type: biochemical; settings: recombinant complex
From the text: (§1) Together, these kinase profiling, binding assay, enzyme inhibition and cell-based data identify the Mediator-associated kinases CDK8, and to a lesser degree CDK19, as molecular targets of BRD6989.

[2] = system: Cyclin B/CDK1, Cyclin A/CDK2, p35/CDK5, Cyclin H/CDK7, Cyclin T/CDK9; assay: Activity of other CDKs; assay type: biochemical; settings: CDKs involved in cell cycle regulation
From the text: (a) Binding of the indicated concentrations of BRD6989 to CDK8/Cyclin C complexes (each point corresponds to mean±S.D.; n=3 biological replicates from 1 independent experiment). (b-f) Effect of the indicated concentrations of BRD6989 on the activity of (b) Cyclin B/CDK1, (c) Cyclin A/CDK2, (d) p35/CDK5, (e) Cyclin H/CDK7, and (f) Cyclin T/CDK9 (each point corresponds to mean±S.D.; n=3 biological replicates from 1 independent experiment).
as §1

[3] = system: Zymosan A-stimulated BMDCs; assay: Viability of zymosan A-stimulated BMDCs; assay type: cell-based, mouse
From the text: (§2) The pyridinyl tetrahydroquinoline BRD6989 (10) emerged as a prioritized hit in the screen (FIG. 2a and Table 2). […] Thus, BRD6989 enhances IL-10 production in activated human and murine macrophages and dendritic cells by a mechanism that appears most pronounced following stimulation of toll-like receptors-7 (TLR7) and TLR8 by R848.

BMDMs = assay: TF-Seq pathway reporter assay in BMDMs; assay type: cell-based, mouse
Experimental: To identify CDK8-responsive signaling pathways, an integrative genomics approach termed transcription factor sequencing (TF-Seq) was applied, in which consensus transcription factor binding sites drive expression of 58 reporter constructs bearing unique sequence tags (O'Connell et al., Cell Syst 2:323-34, 2016).
Given that c-Jun's ability to activate transcription is tightly regulated by phosphorylation, it was determined whether CDK8 inhibition affects c-Jun phosphorylation in activated BMDCs.

[4] = system: Cyclin C/CDK8 complexes in BMDCs; assay: Cytokine production by R848-stimulated BMDCs from CcncΔ/Δ or Ccncf/f mice; assay type: cell-based, mouse
Experimental: Next, to determine whether IL-10 potentiation by CDK8 inhibitors requires functional Cyclin C/CDK8 complexes, differentiation was performed of BMDCs from CcncΔ/Δ mice in which Cyclin C can be specifically disrupted in hematopoietic cells relative to Ccncf/f littermates, which lack the polyinosinic:polycytidylic acid (polyI:C)-responsive Mx1-Cre (Li et al., Nature Cell Biology 16; 1080, 2014) (FIG. 11a). […] The impaired response of BMDCs lacking Cyclin C to BRD6989 and dCA are consistent with a model in which CDK8 restrains IL-10 production during activation of wild type myeloid cells.

[5] = system: mouse bone marrow-derived macrophages (BMDMs); assay: IL-10 production in BMDMs activated with Zymosan A or R848; assay type: cell-based
From the text: as §2

[6] = system: human, monocyte-derived DCs; assay: IL-10 production in human monocyte-derived DCs stimulated with R848; assay type: cell-based
From the text: as §2
(§3) Pre-treatment with these CDK8/19 inhibitors recapitulated the IL-10 potentiating activity of BRD6989 in both BMDCs (FIG. 9b) along with human DCs derived from two independent donors in the context of R848 stimulation (FIGS. 9c and 10a).

R848-stimulated BMDCs [7] = assay: Cytokine production by R848-stimulated BMDCs; assay type: cell-based, mouse
From the text: as §2, §3

414 kinases = assay: Kinase profiling by binding and activity assays
From the text: (§4) Given that the pyridine core of BRD6989 is a common kinase-binding motif (Xing et al., J Comput Aided Mol Des 28:13-23, 2014), its activity against 414 kinases was profiled using a series of binding and activity assays. […] Binding of BRD6989 to CDK8, and its paralog CDK19, was confirmed using an orthogonal kinase-profiling format.

R848-stimulated BMDCs [8] = assay: IL-10 mRNA levels in BMDCs following R848 stimulation; assay type: cell-based, mouse; settings: pre-treatment, then R848 stimulation
Experimental: FIG. 5—Cellular activities of the IL-10 hit BRD6989. […] (d) Effect of BRD6989 on IL-10 production in human DCs stimulated with R848 (each point corresponds to mean±S.D.; n=3 biological replicates from 1 independent experiment using cells derived from 1 donor). (e) Chemical structure of the pan-SIK inhibitor HG-9-91-01. (f) Effect of pre-treating BMDCs with HG-9-91-01 (0.5 μM) or BRD6989 (5 μM) on IL-10 mRNA levels following stimulation with R848 (each point corresponds to mean±S.D.; n=4 biological replicates from 1 independent experiment; *, P<0.05; ***, P<0.001 using unpaired, two-tailed Student's t test). Data from all panels is representative of at least 2 independent experiments.
Based on its ability to selectively potentiate IL-10 production by a mechanism that appears temporally distinct from CREB activation, BRD6989 was prioritized for MOA studies.

Cyclin C/CDK8 [9] = biological target: T1, Cyclin C/CDK8; assay: Binding to Cyclin C/CDK8 complex
From the text: as §4

responder CD4+ T cells = assay: Treg suppression of responder CD4+ T cell proliferation in vitro; assay type: cell-based, mouse; settings: Tregs generated in the presence of CDK8 inhibitor
Experimental: FIG. 19—Suppressing T-cell proliferation in vitro. Treg cells are co-cultured at increasing dilutions with CFSE-labeled responder CD4+ T cells and their ability to suppress responder T cell proliferation upon anti-CD3/CD28 stimulation is assessed. Naive CD4+ T cells from Foxp3IRES-GFP mice were cultured under either optimal conditions for Treg differentiation (Treg Hi) or sub-optimal Treg differentiation conditions in the presence of BRD6989. The resulting GFP+ Treg cells were sorted by FACS. […] Assay was performed as described in eLife 2015; 4:e05920.
Imbalances between anti-inflammatory (FoxP3+ Treg) and pro-inflammatory (TH1 and TH17) CD4+ T cell lineages can lead to pathogenic inflammations in a number of diseases contexts. Therapeutic strategies that enhance FoxP3+ Treg differentiation and/or function are being pursued for treatment of immune and inflammatory disorders. Treatment of naïve CD4+ T cells in the presence of multiple structural classes of CDK8 inhibitors can enhance differentiation into FoxP3+Tregs (FIG. 16).

[10] = biological target: recombinant Cyclin C/CDK19 (Homo sapiens, UniProt Q9BWU1); assay: Kinase activity of recombinant Cyclin C/CDK19; assay type: biochemical; settings: recombinant complex
recombinant Cyclin C/CDK19, sequence (Q9BWU1 whole entry, species assumed): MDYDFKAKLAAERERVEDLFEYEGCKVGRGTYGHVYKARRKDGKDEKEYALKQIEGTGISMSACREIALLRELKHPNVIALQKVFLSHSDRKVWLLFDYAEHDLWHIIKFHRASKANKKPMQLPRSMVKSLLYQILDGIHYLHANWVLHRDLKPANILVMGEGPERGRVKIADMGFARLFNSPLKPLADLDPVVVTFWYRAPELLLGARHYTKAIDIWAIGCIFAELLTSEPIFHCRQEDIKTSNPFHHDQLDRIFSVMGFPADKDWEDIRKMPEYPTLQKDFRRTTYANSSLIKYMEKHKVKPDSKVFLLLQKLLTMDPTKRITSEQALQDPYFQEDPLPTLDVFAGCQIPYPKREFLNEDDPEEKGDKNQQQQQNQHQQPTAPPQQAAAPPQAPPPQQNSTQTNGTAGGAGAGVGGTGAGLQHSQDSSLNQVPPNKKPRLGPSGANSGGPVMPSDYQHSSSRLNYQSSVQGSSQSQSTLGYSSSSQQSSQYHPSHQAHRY
recombinant Cyclin C/CDK19, sequence (P24863 whole entry partner, species assumed): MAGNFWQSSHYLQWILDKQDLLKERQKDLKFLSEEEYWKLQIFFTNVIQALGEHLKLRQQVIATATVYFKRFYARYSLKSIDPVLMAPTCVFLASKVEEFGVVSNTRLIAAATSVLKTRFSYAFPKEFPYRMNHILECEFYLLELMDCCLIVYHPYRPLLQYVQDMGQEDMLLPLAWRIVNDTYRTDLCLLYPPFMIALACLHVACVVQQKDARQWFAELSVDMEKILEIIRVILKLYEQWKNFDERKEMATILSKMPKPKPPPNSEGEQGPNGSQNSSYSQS
From the text: as §1

T1 sequence (P49336 whole entry, species assumed): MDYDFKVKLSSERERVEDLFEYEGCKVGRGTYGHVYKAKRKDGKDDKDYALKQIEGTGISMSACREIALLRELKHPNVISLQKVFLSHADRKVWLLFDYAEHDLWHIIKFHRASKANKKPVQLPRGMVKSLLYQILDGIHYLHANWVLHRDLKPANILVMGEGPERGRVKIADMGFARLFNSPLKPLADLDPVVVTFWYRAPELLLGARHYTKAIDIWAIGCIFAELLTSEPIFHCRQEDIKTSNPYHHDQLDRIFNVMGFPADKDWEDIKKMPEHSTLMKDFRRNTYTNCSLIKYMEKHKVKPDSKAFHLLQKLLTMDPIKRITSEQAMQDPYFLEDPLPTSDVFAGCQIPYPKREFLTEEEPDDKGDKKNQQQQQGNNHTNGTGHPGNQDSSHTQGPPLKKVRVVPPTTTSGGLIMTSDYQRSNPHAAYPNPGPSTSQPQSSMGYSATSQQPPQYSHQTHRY
T1 sequence (P24863 whole entry partner, species assumed): as the sequence (P24863 whole entry partner, species assumed) above

IC50 (Cyclin C/CDK8 [1]): ~500 nM | kinase selectivity (414 kinases; kinase profiling): remarkable selectivity | IC50 (Cyclin C/CDK8 [9]): ~200 nM | IC50 [10]: > 30000 nM
SMILES: CC1CCc2nc(N)c(C#N)c(-c3cccnc3)c2C1 (centres unmarked) [BRD6989]
inhibition of several other CDKs [2]: not the activity of several CDKs involved in cell cycle regulation; also recorded: does not inhibit | cell viability [3]: only modestly reducing cell viability; also recorded: does not significantly reduce the viability | STAT1:STAT2 reporter activity (BMDMs; 2 hours after stimulation of BMDMs): suppressed induction of STAT1:STAT2 activity | NF-κB activation (BMDMs; all stimuli tested): suppressed NF-κB activation to a varying degree | IL-10 upregulation in Ccncf/f BMDCs [4]: remained intact | IL-10 upregulation in CcncΔ/Δ BMDCs ([4]; Cyclin C deleted): failed to upregulate IL-10 | IL-6 production in CcncΔ/Δ BMDCs ([4]; saturating concentrations): no further reduction | IL-10 production [5]: increased IL-10 production; also recorded: up-regulates IL-10 production | IL-10 production [6]: up-regulated IL-10 | IL-10 production (R848-stimulated BMDCs [7]): greater fold-increase in IL-10 production | secondary targets in kinase profiling (414 kinases; both kinase profiling experiments): phosphatidylinositol-4,5-bisphosphate 3-kinases C2A (PI3KC2A) and PI3KCG as secondary targets | IL-10 mRNA levels (R848-stimulated BMDCs [8]): sustained increase beginning at 4 hours and extending to 24 hours | suppression of CD4+ T cell proliferation by inhibitor-induced Tregs (responder CD4+ T cells): suppressed the proliferation of co-cultured responder CD4+ T cells in vitro at each dilution
